Biological target: T1, β-secretase(BACE) (Homo sapiens, UniProt P56817)
T1 construct: purchased Panvera
Assay: BACE FS1% Inhibition Assay
Assay type: biochemical
Settings: FS1 substrate
Summary of the method: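 Human BACE (4 μg/mL working solution) preincubated 20 min at room temperature with compound, then FS1 substrate (300 μg/mL working solution) added and incubated 1 h at room temperature. Percent inhibition calculated at each compound concentration against blank and vehicle controls.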

T1 sequence (P56817 46-501): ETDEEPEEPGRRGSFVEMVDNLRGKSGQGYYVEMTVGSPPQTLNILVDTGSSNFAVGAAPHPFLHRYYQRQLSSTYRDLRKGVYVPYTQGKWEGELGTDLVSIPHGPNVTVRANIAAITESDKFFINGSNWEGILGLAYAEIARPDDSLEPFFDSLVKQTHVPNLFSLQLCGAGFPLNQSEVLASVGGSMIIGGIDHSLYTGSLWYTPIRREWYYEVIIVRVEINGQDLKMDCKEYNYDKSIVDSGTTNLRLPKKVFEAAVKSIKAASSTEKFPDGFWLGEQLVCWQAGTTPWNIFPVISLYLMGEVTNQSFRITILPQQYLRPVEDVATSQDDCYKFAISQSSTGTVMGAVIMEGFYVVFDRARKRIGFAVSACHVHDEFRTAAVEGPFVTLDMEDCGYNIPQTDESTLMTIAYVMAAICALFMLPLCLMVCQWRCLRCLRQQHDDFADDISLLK

Row | % Inhibition (FS) 0.3 μM (0.3 μM test compound) [%] | % Inhibition (FS) 1 μM (1 μM test compound) [%] | % Inhibition (FS) 3 μM (3 μM test compound) [%] | other results | SMILES
1 |  |  |  | % Inhibition (FS) (0.3 μM test compound): 34%; % Inhibition (FS) (1 μM test compound): <30%; % Inhibition (FS) (3 μM test compound): <30% | CCCC(=O)NCCN1Cc2cc(-c3cnc4ccccc4c3)ccc2N=C1N [Compound 673]
2 | 72 | 94 | 112 |  | NC1=Nc2ccc(-c3ccccc3Cl)cc2CN1CCNC(=O)C1CCCC1 [Compound 650]
3 | <30 | <30 | <30 |  | CN(C(=O)c1cccc(CN2Cc3cc(OCc4ccccc4-c4ccccc4)ccc3N=C2N)c1)C1CCCCC1 [Compound 513]
4 |  |  |  | % Inhibition (FS) (0.3 μM test compound, 0.3 µM): <30%; % Inhibition (FS) (1 μM test compound, 1 µM): 84%; % Inhibition (FS) (3 μM test compound, 3 µM): 109% | CCOC(=O)C1CCC(N(C)C(=O)CCC(C2CCCCC2)N2Cc3cc(Oc4ccccc4)ccc3N=C2N)CC1 (centres unmarked) [Compound 763]
5 |  |  | <30 | % Inhibition (FS) 10 μM (10 μM test compound): 37% | CN(C(=O)c1ccc2c(c1)C(N1Cc3cc(Oc4ccccc4)ccc3N=C1N)CC2)C1CCCCC1 (centres unmarked) [Compound 145]
6 | <30 | 31 | 96 |  | CC1CCCCN1C(=O)CCCC(CCC(=O)N1CCCCC1C)N1Cc2cc(Oc3ccccc3)ccc2N=C1N (centres unmarked) [Compound 504]
7 |  |  |  | % Inhibition (FS) (0.3 μM test compound): <30%; % Inhibition (FS) (1 μM test compound): 36%; % Inhibition (FS) (3 μM test compound): 85% | COc1cccc(F)c1-c1ccc2c(c1)CN(CCNC(=O)C1CCC(C(F)(F)F)CC1)C(N)=N2 (centres unmarked) [Compound 700]
8 | <30 | <30 | <30 |  | CN(C)Cc1ccccc1-c1ccc2c(c1)CN(Cc1cccc(C(=O)N(C)C3CCCCC3)c1)C(N)=N2 [Compound 172]
9 | <30 | <30 | 82 |  | CN(C(=O)CC(C1CCCCC1)N1Cc2cc(Oc3ccccc3)ccc2N=C1N)C1CCCCC1 (centres unmarked) [Compound 199]
10 | <30 | 33 | 88 |  | COc1cccc(Nc2ccc3c(c2)CN(Cc2cccc(C(=O)N(C)C4CCCCC4)c2)C(N)=N3)c1 [Compound 433]
11 | <30 | 39 | 50 |  | COc1ccc(Sc2ccc3c(c2)CN(Cc2cccc(C(=O)N(C)C4CCCCC4)c2)C(N)=N3)cc1 [Compound 410]
12 |  |  |  | inhibition at 0.3 µM (0.3 μM test compound, read-out: % Inhibition (FS)): < 30%; inhibition at 1 µM (1 μM test compound, read-out: % Inhibition (FS)): < 30%; inhibition at 3 µM (3 μM test compound, read-out: % Inhibition (FS)): < 30% | NC1=Nc2ccc(Oc3ccccc3)cc2CN1Cc1cccc(N)c1 [Compound 811]
13 |  |  |  | % Inhibition (FS) (0.3 μM test compound): 66%; % Inhibition (FS) (1 μM test compound): 97%; % Inhibition (FS) (3 μM test compound): 109% | CCCCC(CC)C(=O)NCCN1Cc2cc(-c3ccccc3C)ccc2N=C1N (centres unmarked) [Compound 662]
14 |  |  |  | % Inhibition (FS) (0.3 μM test compound): 38%; % Inhibition (FS) (1 μM test compound): <30%; % Inhibition (FS) (3 μM test compound): 65% | CN(Cc1cc(-c2ccccc2)on1)C(=O)CC[C@@H](C1CCCCC1)N1Cc2cc(-c3ccccc3F)ccc2N=C1N [Compound 724]
15 | 52 | 72 | 97 |  | CC(C)(C)C(=O)NCCN1Cc2cc(-c3ccccc3F)ccc2N=C1N [Compound 646]
16 | <30 | <30 | 90 |  | CN(C(=O)c1ccc(CN2Cc3cc(Oc4ccccc4)ccc3N=C2N)s1)C1CCCCC1 [Compound 503]
17 | 34 | 65 | 95 |  | NC1=Nc2ccc(-c3ccccc3Cl)cc2CN1CCNC(=O)C1CCC1 [Compound 649]
18 | <30 | <30 | <30 |  | COc1cccc(OC)c1Oc1ccc2c(c1)CN(CCC(=O)NC1C3CC4CC(C3)CC1C4)C(N)=N2 (centres unmarked) [Compound 465]

Reference: patent publication US8383637B2, “2-amino-quinazoline derivatives useful as inhibitors of β-secretase (BACE)” (Jansssen Pharmaceutica N.V., priority 2004, dated 2013)
